Laboratory results published in patent US11453679B2, “Methyl 2-methyl-5-oxo-1,4,5,7-tetradhydrofuro[3,4-b]pyridine-3-carboxylate compounds as Cav1.2 activators” (Novartis AG, priority 2020, dated 2022).
pEC50: −log10 of the molar value. Read-outs that look alike come from different tables or passages of the source. Blank lines part the entries; values can stand above or below the molecule they belong to.

Assays:
cFos mRNA = cFos mRNA induction in cortex of wild-type mice (quantitative PCR); type: in vivo, C57BL/6J male mice; conditions: one hour after administration
Description: Compound administration and brain tissue collection.
Quantification of cFos mRNA induction. Tissue homogenization was performed using TissueLyser system for 96 well plates (Qiagen). First, frozen cortical samples were thawed, removed from RNAlater, and placed into TissueLyser tubes along with Buffer RLT containing 0.5% Reagent DX and one 5 mm TissueLyser metal bead. The TissueLyser tubes were loaded into a TissueLyser II tissue homogenizer for 3 rounds of homogenization, with each round lasting 5 minutes at 30 Hz bead-beating frequency. Total RNA was purified from the homogenate using RNeasy 96 Plus kit (Qiagen), RNA concentration and A260/A280 ratio were quantified via the Nanodrop (ThermoFisher), and all samples were normalized to 100 ng/μl concentration. RNA was reverse transcribed into cDNA using the Superscript III First-strand synthesis SuperMix Kit (ThermoFisher). For each sample, 6 μl of RNA (600 ng total) was mixed with 1 μL of Oligo dT and 1 μL of annealing buffer and heated to 65° C. for 5 minutes. Next, 10 μL of 2× First-Strand Reaction Mix and 2 μL of the Enzyme mix were added to achieve a total reaction volume of 20 μL. The samples were heated to 50° C. for 50 minutes then 85° C. for 5 minutes to complete cDNA synthesis.
Quantitative PCR was performed on the cDNA samples using Quantitect Multiplex RT-PCR kit (Qiagen) in a 384-well assay format. Each PCR well contained 2 μL of cDNA (60 ng total), 10 μL of RT-PCR mastermix, 1 μL of cFos FAM Taqman probe (Mm00487425_m1 (FAM) #4351368), 1 μL of GAPDH VIC Taqman probe (Mm99999915-g1 (VIC) #4448486), 0.2 μL of Multiplex RT mix and 5.8 μl of RNase-free water. On the ViiA7 Real-Time PCR system (ThermoFisher), the samples were heated to 95° C. for 15 minutes then cycled between 94° C. for 45 seconds and 60° C. for 45 seconds for 45 cycles. cFos Ct values were exported, normalized to GAPDH Ct values, and converted to relative fold change in expression using the delta-delta Ct relative quantification method. cFos fold changes between compound treatments and vehicle were analyzed by one-way ANOVA, followed by Tukey's post-hoc comparisons.

[1] = Compound exposure in wild-type mice (cerebellum and blood, mass spectrometry); conditions: male, C57BL/6J, mouse, brain (cerebellum) and whole blood, ip
Description: (§1) Compound administration and brain tissue collection. Wild-type C57BL/6J male mice were obtained from Jackson laboratories (Bar Harbor, Me.). The acute, single-dose effects of Cav1.2 activators of the present disclosure were evaluated in male eight-week old mice (n=6 mice per compound). Each compound was dissolved in 10% PEG300, 10% Solutol, 10% Cremophore EL, and 70% Phosphate Buffered Saline and administered intraperitoneal (i.p.) at a concentration of 1 mg/kg up to 30 mg/kg depending on the compound. Animals were euthanized one hour after compound administration via exsanguination under deep anesthesia. Blood was collected in EDTA tubes for downstream analysis of drug levels. Brains were rapidly removed from the skull, and the cerebral cortex and cerebellum were regionally dissected. Cerebellar samples were snap frozen in liquid nitrogen to assess compound exposure.
(§2) Quantification of compound exposure. Cerebellar tissue samples were homogenized in 4 mL of 20% acetonitrile and 80% Phosphate buffered saline for every 1 g of tissue (5× dilution). Tissue was homogenized using either of the following three methods: hand held probe system, TissueLyser system with 5 mm steel bead at a frequency of 30 s^−1 for 4 min, or OMNI Bead Ruptor Elite homogenizer for 30 seconds to 1 minute depending on tissue type. Tissue samples were added to a 96-well plate (12.5 μL sample) and processed for quantification by mass spectrometry.

human Cav1.2 [2] = biological target: T1, human Cav1.2 (Homo sapiens, UniProt Q13936); assay: Sophion QPatch whole-cell voltage clamp dose-response assay, Cav1.2-HEK293(AUX) cell line (barium currents); conditions: for pEC50: QPatch EC50, 6-point dose response, 20-ms pulses from −80 mV to 0 mV, n = 1 unless marked (* n = 2, # n = 3); for QPatch Emax: maximal fold change of peak inward current
T1 sequence (Q13936 whole entry): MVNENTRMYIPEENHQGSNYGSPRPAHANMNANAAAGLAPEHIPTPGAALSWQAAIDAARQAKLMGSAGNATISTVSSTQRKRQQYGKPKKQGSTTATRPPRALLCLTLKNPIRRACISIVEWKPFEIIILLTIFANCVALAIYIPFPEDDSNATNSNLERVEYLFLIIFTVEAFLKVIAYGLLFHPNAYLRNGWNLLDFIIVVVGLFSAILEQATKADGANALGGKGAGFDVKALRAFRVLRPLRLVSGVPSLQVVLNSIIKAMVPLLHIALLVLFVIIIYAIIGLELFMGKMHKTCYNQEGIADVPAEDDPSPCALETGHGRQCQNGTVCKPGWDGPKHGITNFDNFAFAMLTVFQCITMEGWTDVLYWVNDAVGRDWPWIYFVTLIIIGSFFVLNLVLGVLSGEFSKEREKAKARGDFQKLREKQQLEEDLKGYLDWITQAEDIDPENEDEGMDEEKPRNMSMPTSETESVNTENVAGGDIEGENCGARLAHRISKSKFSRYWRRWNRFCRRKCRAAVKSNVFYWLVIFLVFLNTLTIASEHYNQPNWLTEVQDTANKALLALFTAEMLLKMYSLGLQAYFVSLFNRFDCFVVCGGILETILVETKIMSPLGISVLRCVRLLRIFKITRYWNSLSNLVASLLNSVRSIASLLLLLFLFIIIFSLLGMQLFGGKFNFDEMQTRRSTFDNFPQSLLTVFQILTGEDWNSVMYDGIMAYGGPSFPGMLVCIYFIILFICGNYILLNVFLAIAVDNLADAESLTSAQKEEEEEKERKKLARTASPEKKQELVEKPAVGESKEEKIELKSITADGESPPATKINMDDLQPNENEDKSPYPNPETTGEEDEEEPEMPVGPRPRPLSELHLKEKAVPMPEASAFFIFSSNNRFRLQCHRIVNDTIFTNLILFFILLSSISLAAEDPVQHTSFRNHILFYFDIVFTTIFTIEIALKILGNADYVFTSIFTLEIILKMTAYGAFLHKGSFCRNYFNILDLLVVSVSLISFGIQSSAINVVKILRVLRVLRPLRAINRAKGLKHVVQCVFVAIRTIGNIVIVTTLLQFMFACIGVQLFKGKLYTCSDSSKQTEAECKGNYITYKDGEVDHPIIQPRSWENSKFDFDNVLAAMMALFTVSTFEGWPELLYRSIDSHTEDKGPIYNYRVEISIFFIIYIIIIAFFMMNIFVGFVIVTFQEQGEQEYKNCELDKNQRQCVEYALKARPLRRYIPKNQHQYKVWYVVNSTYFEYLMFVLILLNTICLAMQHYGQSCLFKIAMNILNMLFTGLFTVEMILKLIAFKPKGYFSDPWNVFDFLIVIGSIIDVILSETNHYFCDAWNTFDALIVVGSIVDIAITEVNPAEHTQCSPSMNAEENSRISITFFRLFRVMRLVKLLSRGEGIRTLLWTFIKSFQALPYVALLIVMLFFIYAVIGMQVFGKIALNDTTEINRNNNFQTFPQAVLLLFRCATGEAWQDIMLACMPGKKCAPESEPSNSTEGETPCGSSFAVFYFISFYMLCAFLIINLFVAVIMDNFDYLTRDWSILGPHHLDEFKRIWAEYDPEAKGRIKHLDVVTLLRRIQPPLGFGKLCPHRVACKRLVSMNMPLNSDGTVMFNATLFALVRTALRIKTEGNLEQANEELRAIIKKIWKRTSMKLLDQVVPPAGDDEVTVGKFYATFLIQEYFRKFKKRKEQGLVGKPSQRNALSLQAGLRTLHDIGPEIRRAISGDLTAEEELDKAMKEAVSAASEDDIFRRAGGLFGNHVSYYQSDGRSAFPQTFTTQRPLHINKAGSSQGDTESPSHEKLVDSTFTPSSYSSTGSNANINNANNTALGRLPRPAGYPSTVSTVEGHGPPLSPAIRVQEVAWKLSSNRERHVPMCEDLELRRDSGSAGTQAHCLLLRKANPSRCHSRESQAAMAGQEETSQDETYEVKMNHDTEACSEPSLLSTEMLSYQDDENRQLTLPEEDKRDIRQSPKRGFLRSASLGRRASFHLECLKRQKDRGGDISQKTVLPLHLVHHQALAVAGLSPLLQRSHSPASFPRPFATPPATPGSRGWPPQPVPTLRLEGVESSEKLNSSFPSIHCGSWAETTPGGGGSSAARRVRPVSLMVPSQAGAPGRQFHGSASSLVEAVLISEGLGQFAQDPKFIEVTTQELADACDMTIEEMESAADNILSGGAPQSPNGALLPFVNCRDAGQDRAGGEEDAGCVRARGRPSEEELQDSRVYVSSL
T1 sequence (Q9NY47 19-1001 partner limits assumed): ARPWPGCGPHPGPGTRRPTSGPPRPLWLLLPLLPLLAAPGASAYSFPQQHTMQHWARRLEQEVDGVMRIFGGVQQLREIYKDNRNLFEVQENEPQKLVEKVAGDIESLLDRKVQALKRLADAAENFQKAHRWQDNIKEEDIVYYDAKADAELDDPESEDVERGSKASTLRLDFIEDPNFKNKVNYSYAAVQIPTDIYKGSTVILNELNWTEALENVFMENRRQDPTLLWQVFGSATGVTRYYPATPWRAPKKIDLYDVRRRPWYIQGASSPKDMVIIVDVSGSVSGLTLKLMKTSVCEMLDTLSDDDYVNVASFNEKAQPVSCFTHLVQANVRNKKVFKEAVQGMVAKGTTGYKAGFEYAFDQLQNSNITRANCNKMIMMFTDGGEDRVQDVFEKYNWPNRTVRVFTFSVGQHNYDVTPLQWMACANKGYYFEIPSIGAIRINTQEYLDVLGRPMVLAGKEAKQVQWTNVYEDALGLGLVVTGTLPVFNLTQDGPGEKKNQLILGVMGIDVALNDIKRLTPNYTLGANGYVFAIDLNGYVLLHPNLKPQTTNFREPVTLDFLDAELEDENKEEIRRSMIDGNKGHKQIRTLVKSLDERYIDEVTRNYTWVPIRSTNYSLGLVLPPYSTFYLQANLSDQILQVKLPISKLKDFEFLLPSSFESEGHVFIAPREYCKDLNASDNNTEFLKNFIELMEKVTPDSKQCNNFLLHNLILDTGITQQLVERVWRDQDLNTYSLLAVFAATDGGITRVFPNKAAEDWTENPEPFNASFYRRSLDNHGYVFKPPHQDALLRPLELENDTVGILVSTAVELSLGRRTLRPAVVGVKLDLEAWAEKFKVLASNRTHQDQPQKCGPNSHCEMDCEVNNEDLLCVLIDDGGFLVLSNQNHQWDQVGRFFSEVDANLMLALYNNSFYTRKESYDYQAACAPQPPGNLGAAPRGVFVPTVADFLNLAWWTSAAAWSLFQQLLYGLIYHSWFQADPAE
T1 sequence (Q9NY47 1002-1150 partner limits assumed): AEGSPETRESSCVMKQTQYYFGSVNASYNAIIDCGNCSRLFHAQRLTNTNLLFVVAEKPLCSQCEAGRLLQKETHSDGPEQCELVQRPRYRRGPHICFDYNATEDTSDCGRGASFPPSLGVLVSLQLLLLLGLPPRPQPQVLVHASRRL
T1 sequence (Q08289 whole entry partner): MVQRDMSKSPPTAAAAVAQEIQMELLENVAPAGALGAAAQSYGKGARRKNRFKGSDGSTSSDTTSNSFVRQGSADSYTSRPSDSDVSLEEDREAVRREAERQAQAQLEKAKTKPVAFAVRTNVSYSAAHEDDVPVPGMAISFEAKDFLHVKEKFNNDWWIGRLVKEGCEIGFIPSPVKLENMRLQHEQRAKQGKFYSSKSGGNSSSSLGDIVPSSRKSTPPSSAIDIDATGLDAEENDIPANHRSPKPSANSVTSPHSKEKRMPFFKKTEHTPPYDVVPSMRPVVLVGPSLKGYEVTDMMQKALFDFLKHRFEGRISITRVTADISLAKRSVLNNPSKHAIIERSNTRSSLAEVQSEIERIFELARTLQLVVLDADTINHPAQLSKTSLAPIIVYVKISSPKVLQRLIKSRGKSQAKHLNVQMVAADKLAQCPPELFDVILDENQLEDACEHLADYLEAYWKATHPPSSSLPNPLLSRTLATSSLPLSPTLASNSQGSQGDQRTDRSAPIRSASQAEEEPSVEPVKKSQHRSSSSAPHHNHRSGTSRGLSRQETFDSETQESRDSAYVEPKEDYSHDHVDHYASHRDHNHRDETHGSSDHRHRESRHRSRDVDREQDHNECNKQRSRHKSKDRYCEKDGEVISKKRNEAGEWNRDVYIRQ
Description: (§3) 24 hours prior an electrophysiology experiment, doxycycline (1 μg/ml) was added to the growth medium (Table 1), and 25 μM of verapamil was co-applied to prevent calcium influx triggered cell death. Cell confluency should reach 70%-80% right before the experiment.
(§4) To harvest cells (from a T175 cm^2 flask as an example), growth media were removed completely, and the cells were rinsed with 10 mL of D-PBS. D-PBS was aspirated, and 10 mL of Detachin (Genlantis) was added and the plate was placed in a 37° C. incubator for 10 minutes. Detached cells were placed into a 15 mL conical tube and spun at 1000 rpm for 2 minutes. Supernatant was removed, and cells were re-suspended in QPatch complete media (Table 2) to desired cell density of 1.5-3 million cells per QPatch run. Each experimental run uses 1.5 mL of cells.
(§5) The cells suspension was taken to the Sophion QPatch platform that uses whole-cell voltage clamp to measure barium currents conducted through Cav1.2 on single-hole QPlates. […] A dose-response assay protocol was used to determine the maximal fold change of peak inward current (Emax) and potency (EC50) of each compound. The protocol had eight liquid periods. The first liquid period was to stabilize current amplitude, which was monitored using repetitive 200-ms voltage pulses stepping from −80 mV to 0 mV. The second liquid period was to determine baseline current amplitude in the presence of vehicle control, using a single 20-ms voltage pulse stepping from −80 mV to 0 mV. The third through eighth liquid periods were used to ascertain a 6-dose response to compound treatments, also using single 20-ms voltage pulses stepping from −80 mV to 0 mV. The EC50 was generated using the following equation Iconcentration=Ibase+(Ifull−Ibase)*c^n/(XC50^n+c^n), where c is the concentration and n is the Hill coefficient constant. Ifull is the maximal current achievable, and Ibase is 0.

human Cav1.2 [3] = biological target: T1, human Cav1.2; assay: QPatch channel biophysics assay (current-voltage relationship, V1/2, tau of inactivation), Cav1.2-HEK293(AUX) cell line; type: cell-based; set-up: expressed in transfected cells; host or cells: Flp-In 293 T-Rex (HEK293), clone 2-19B, stably transfected with pCMV6-entry-CACNA1C and pcDNA5H/FRT-TO-CACNA2D2-FCS-P2A-CACNB2; conditions: shift of half-way channel activation voltage (V1/2)
Description: Clonal isolation was achieved under Neomycin selection.
Each experimental run uses 1.5 mL of cells.
The protocol had eight liquid periods. […] The protocol had four liquid periods.

human Cav1.2 [4] = biological target: T1, human Cav1.2
Description: as §3, §4, §5

[5] = mouse, in vivo, ip
Description: as §1, §2

- Kp at 1 h [1]: 1.1
SMILES: COC(=O)C1=C(C)NC2=C(C(=O)OC2)[C@H]1c1cccc(F)c1[C@H]1CC1(F)F (single isomer, unassigned) [Example 1, Methyl (S)-4-(2-((R or S)-2,2-difluorocyclopropyl)-3-fluorophenyl)-2-methyl-5-oxo-1,4,5,7-tetrahydrofuro[3,4-b]pyridine-3-carboxylate]
- % ↑cFOS mRNA cortex (3 mg/kg ip) (cFos mRNA): 169%
- % ↑cFOS mRNA cortex (10 mg/kg ip) (cFos mRNA): 350%
- pEC50 (human Cav1.2 [2]): 6.89
- QPatch Emax (human Cav1.2 [2]): 2.0
- Biophysics voltage shift (human Cav1.2 [3]): −4.5 mV

- Kp at 1 h [1]: 1.3
SMILES: COC(=O)C1=C(C)NC2=C(C(=O)OC2)[C@H]1c1cccc(F)c1C(C)C (single isomer, unassigned) [Example 15]
- % ↑cFOS mRNA cortex (3 mg/kg ip) (cFos mRNA): 169%
- pEC50 (human Cav1.2 [2]): 7.30
- QPatch Emax (human Cav1.2 [2]): 2
- Biophysics voltage shift (human Cav1.2 [3]): −6.6 mV

- Brain:blood ratio [5]: 3.4
SMILES: COC(=O)C1=C(C)NC2=C(C(=O)OC2)[C@H]1c1cccc(F)c1C1CC1(F)F (single isomer, unassigned) [Example 2, Methyl (S)-4-(2-((S or R)-2.2-difluorocyclopropyl)-3-fluorophenyl)-2-methyl-5-oxo-1,4,5,7-tetrahydrofuro[3,4-b]pyridine-3-carboxylate]
- % ↑cFOS mRNA cortex (3 mg/kg ip) (cFos mRNA): 23%
- % ↑cFOS mRNA cortex (10 mg/kg ip) (cFos mRNA): 203%
- pEC50 (human Cav1.2 [4]): 6.77
- QPatch Emax (human Cav1.2 [2]): 1.6
- Biophysics voltage shift (human Cav1.2 [3]): −1.9 mV

- Kp at 1 h [1]: 2.3
SMILES: COC(=O)C1=C(C)NC2=C(C(=O)OC2)[C@H]1c1cccc(F)c1CC(F)(F)F (single isomer, unassigned) [Example 9]
- % ↑cFOS mRNA cortex (3 mg/kg ip) (cFos mRNA): 112%
- pEC50 (human Cav1.2 [2]): 6.89
- QPatch Emax (human Cav1.2 [2]): 1.5
- Biophysics voltage shift (human Cav1.2 [3]): −6.6 mV
